The record followed here is ChEMBL document CHEMBL1135403, “Nanomolar inhibitors of Staphylococcus aureus methionyl tRNA synthetase with potent antibacterial activity against gram-positive pathogens” (J Med Chem, 2002).

Experiment [1] relates to Enterococcus faecalis. Briefly: In vitro minimum inhibitory activity against Enterococcus faecalis 7 strain. It counts as functional.
Experiment [2] has as its system Staphylococcus aureus. Briefly: In vitro minimum inhibitory activity against Staphylococcus aureus WCUH29 strain. It counts as functional.
The test system of experiment [3] is Staphylococcus aureus. Briefly: In vitro minimum inhibitory activity against Staphylococcus aureus Oxford strain. It counts as functional.
Experiment [4] deals with Staphylococcus aureus. Briefly: In vitro inhibitory concentration against Staphylococcus aureus Methionyl tRNA synthetase. It counts as functional.
In experiment [5] the test system is Staphylococcus aureus. Kind of experiment: In vitro antibacterial activity and competitive kinetics with respect to methionine. It counts as functional, organism-based.
The test system of experiment [6] is Enterococcus faecalis. Kind of experiment: In vitro minimum inhibitory activity against Enterococcus faecalis 1 strain. It counts as functional.
The test system of experiment [7] is Enterococcus faecalis. Briefly: MIC required to inhibit 90% of the growth of Enterococcus faecalis (n = 10). In kind it is functional.
The test system of experiment [8] is Enterococcus faecium. Briefly: MIC required to inhibit 90% of the growth of Enterococcus faecium (n = 10). It counts as functional.
Experiment [9] deals with Staphylococcus aureus. Briefly: MIC required to inhibit 90% of the growth of Staphylococcus aureus (n = 31). It counts as functional.
The subject of experiment [10] is Staphylococcus epidermidis. Briefly: MIC required to inhibit 90% of the growth of Staphylococcus epidermidis (n = 10). In kind it is functional.
Experiment [11] deals with Staphylococcus aureus. Briefly: In vivo efficacy against Staphylococcus aureus WCUH29 in a Groin Abscess infection in rats at a dose of 50 mg/kg; log10 cfu. In kind it is functional.
Experiment [12] concerns Staphylococcus aureus. Kind of experiment: In vivo efficacy against Staphylococcus aureus WCUH29 in a Groin Abscess infection in rats at a dose of 21 mg/kg; log10 cfu. In kind it is functional.
Experiment [13] deals with Nucleic Acid. Kind of experiment: In vitro inhibitory concentration against tRNA synthetases, in a pyrophosphate exchange assay. It counts as functional, Staphylococcus aureus.

In brackets after ≈: the same amount, converted by molar mass.

As usually defined, the MIC is the smallest concentration in the dilution series that meets the test's criterion for growth inhibition. The term IC50 denotes the concentration at which inhibition is half-maximal. A higher IC50 goes with a need for much substance. Usually Ki stands for a measure of affinity in units of concentration, obtained from inhibition or displacement. A high value points to a looser hold on the target. By MIC90 is commonly meant an inhibitory concentration at the 90% level, which refers to growth in some studies and to a panel of isolates in others. Lower therefore signals greater potency.

On to `O=c1cc(NCCCNCc2ccc(Cl)c(Cl)c2)[nH]c2ccccc12`, for which the minimum inhibitory concentration (MIC) stood at 2 µg/mL (≈ 5.32 µM) in experiment [1], 8 µg/mL (≈ 21.3 µM) in [2], 4 µg/mL (≈ 10.6 µM) in [3] and 2 µg/mL (≈ 5.32 µM) in [6]. In experiment [4], the IC50 worked out at 16 nM. The compound further displayed a Ki in experiment [5] of 5 nM.
Turning to `CC1(C)S[C@@H]2[C@H](NC(=O)[C@H](N)c3ccc(O)cc3)C(=O)N2[C@H]1C(=O)O` [AMOXICILLIN], the MIC90 in experiment [7] is greater than 16 µg/mL; in experiment [8], greater than 16 µg/mL; in experiment [9], greater than 16 µg/mL; in [10], 8 µg/mL (≈ 21.9 µM). In addition, the MIC in experiment [1] was 0.5 µg/mL (≈ 1.37 µM); in experiment [2], greater than 64 µg/mL; in experiment [3], 0.125 µg/mL (≈ 0.342 µM); in experiment [6], 0.5 µg/mL (≈ 1.37 µM).
Take `Oc1cc(NCCCNC2CCNc3c(Br)cc(Br)cc32)nc2ccccc12` (configuration not stated): the MIC90 in experiment [7] is 0.03 µg/mL (≈ 0.0593 µM); in experiment [8] it was less than 0.016 µg/mL; in [9], 0.5 µg/mL (≈ 0.988 µM); in experiment [10], 0.5 µg/mL (≈ 0.988 µM). Besides, the minimal inhibitory concentration (MIC) in experiment [1] is less than 0.06 µg/mL; in experiment [2], 0.125 µg/mL (≈ 0.247 µM); in [3], less than 0.06 µg/mL; in experiment [6], less than 0.06 µg/mL. The compound also displayed an IC50 in [4] of 8 nM.
With `CC[C@H]1OC(=O)[C@H](C)[C@@H](O[C@H]2C[C@@](C)(OC)[C@@H](O)[C@H](C)O2)[C@H](C)[C@@H](O[C@@H]2O[C@H](C)C[C@H](N(C)C)[C@H]2O)[C@](C)(O)C[C@@H](C)C(=O)[C@H](C)[C@@H](O)[C@]1(C)O` [ERYTHROMYCIN], the Bacterial counts in [11] is on record as 3.7.
`C/C(=C\C(=O)OCCCCCCCCC(=O)O)C[C@@H]1OC[C@H](C[C@@H]2O[C@H]2[C@@H](C)[C@H](C)O)[C@@H](O)[C@H]1O` [MUPIROCIN]: the MIC in experiment [1] turned out to be 64 µg/mL (≈ 128 µM); in experiment [2], 0.25 µg/mL (≈ 0.499 µM); in experiment [6], 64 µg/mL (≈ 128 µM).
For the compound `CCc1cc(I)c2c(c1)C(NCCCNc1cc(=O)c3ccccc3[nH]1)CCN2` (configuration not stated), the MIC90 in experiment [7] was 0.25 µg/mL (≈ 0.498 µM); in experiment [8], 0.06 µg/mL (≈ 0.119 µM); in [9], 1 µg/mL (≈ 1.99 µM); in experiment [10], 1 µg/mL (≈ 1.99 µM). Moreover, the MIC in experiment [1] was 0.125 µg/mL (≈ 0.249 µM); in [2], 0.25 µg/mL (≈ 0.498 µM); in experiment [3] it was 0.25 µg/mL (≈ 0.498 µM); in experiment [6], less than 0.06 µg/mL. The same compound came in with a Bacterial counts in [12] of 3.9. In addition, the 50% inhibitory concentration (IC50) in experiment [13] worked out at 1.4 nM.
